Source: USRE39591E1, “6-O-substituted ketolides having antibacterial activity” (Abbott Laboratories, priority 1996, dated 2007)
Converted amounts (≈) assume the structure as drawn.

System: up to 32 different microorganisms
Test: in vitro antibacterial activity (MIC), agar dilution on Brain Heart Infusion (BHI) agar with Steers replicator
Type: cell-based
Details: unit assumed
Procedure, shortened: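 Up to 32 strains were replicator-inoculated (1:100, or 1:10 for Micrococcus and Streptococcus) onto BHI agar plates holding serial compound dilutions and kept 20-24 h at 35-37° C. Plates were read visually against drug-free growth controls, with erythromycin A run alongside; MIC was the lowest concentration giving no growth, slight haze or sparse colonies.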

Row | SMILES | MIC (organism code AA) | MIC (organism code BB) | MIC (organism code CC) | MIC (organism code DD) | MIC (organism code EE) | MIC (organism code FF) | MIC (organism code GG) | MIC (organism code HH) | MIC (organism code II) | MIC (organism code JJ) | MIC (organism code KK) | MIC (organism code LL) | MIC (organism code MM) | MIC (organism code NN) | MIC (organism code OO) | MIC (organism code PP) | MIC (organism code QQ) | MIC (organism code RR) | MIC (organism code SS) | MIC (organism code TT) | other results
1 | CC[C@H]1OC(=O)[C@H](C)C(=O)[C@H](C)[C@@H](O[C@@H]2O[C@H](C)C[C@H](N(C)C)[C@H]2O)[C@@](C)(OCC=Cc2ccc3ncc(Br)cc3c2)C[C@@H](C)C(=O)[C@H](C)[C@H]2NC(=O)O[C@@]21C [Example 219, R is —CH2CH═CH-(3-bromo-6-quinolyl)] | 0.2 µg/mL (≈ 0.237 µM) | 0.2 µg/mL (≈ 0.237 µM) | 100 µg/mL (≈ 118 µM) | 0.2 µg/mL (≈ 0.237 µM) | 0.2 µg/mL (≈ 0.237 µM) | 0.2 µg/mL (≈ 0.237 µM) | 100 µg/mL (≈ 118 µM) | 0.2 µg/mL (≈ 0.237 µM) | 0.05 µg/mL (≈ 0.0592 µM) | ≤ 0.005 µg/mL | 0.02 µg/mL (≈ 0.0237 µM) | 0.02 µg/mL (≈ 0.0237 µM) | 3.1 µg/mL (≈ 3.67 µM) | 0.2 µg/mL (≈ 0.237 µM) | 0.05 µg/mL (≈ 0.0592 µM) | 0.2 µg/mL (≈ 0.237 µM) | 100 µg/mL (≈ 118 µM) | 0.78 µg/mL (≈ 0.923 µM) | > 100 µg/mL | > 100 µg/mL | MIC (organism code UU): 0.39 µg/mL (≈ 0.462 µM); MIC (organism code VV): 0.05 µg/mL (≈ 0.0592 µM); MIC (organism code WW): 2 µg/mL (≈ 2.37 µM); MIC (organism code XX): 0.03 µg/mL (≈ 0.0355 µM); MIC (organism code YY): 0.03 µg/mL (≈ 0.0355 µM); MIC (organism code ZZ): 2 µg/mL (≈ 2.37 µM); MIC (organism code ZZA): 0.25 µg/mL (≈ 0.296 µM)
2 | CC[C@H]1OC(=O)[C@H](C)C(=O)[C@H](C)[C@@H](O[C@@H]2O[C@H](C)C[C@H](N(C)C)[C@H]2O)[C@@](C)(OCC=O)C[C@@H](C)C(=O)[C@H](C)[C@H]2NC(=O)O[C@@]21C [Example 220, Compound of Formula (IX): L is CO, T is NH, R is —CH2C(O)H] | 0.2 µg/mL | 0.39 µg/mL | > 100 µg/mL | 0.2 µg/mL | 0.2 µg/mL | 0.2 µg/mL | > 100 µg/mL | 0.2 µg/mL | 0.05 µg/mL | ≤ 0.005 µg/mL | 0.02 µg/mL | 0.01 µg/mL | > 100 µg/mL | 0.39 µg/mL | 0.02 µg/mL | 0.2 µg/mL | 12.5 µg/mL | 0.1 µg/mL | 12.5 µg/mL | > 100 µg/mL | MIC (organism code UU): 3.1 µg/mL; MIC (organism code VV): 0.2 µg/mL; MIC (organism code WW): 2 µg/mL; MIC (organism code XX): 0.03 µg/mL; MIC (organism code YY): 0.06 µg/mL; MIC (organism code ZZ): > 128 µg/mL; MIC (organism code ZZA): 2 µg/mL
3 | CC[C@H]1OC(=O)[C@H](C)C(=O)[C@H](C)[C@@H](O[C@@H]2O[C@H](C)C[C@H](N(C)C)[C@H]2O)[C@@](C)(OCCNCCc2ccccc2)C[C@@H](C)C(=O)[C@H](C)[C@H]2NC(=O)O[C@@]21C [Example 222, Compound of Formula (IX): L is CO, T is NH, R is —CH2CH2NHCH2CH2Phenyl] | 0.2 µg/mL | 0.1 µg/mL | > 100 µg/mL | 0.39 µg/mL | 0.2 µg/mL | 0.2 µg/mL | > 100 µg/mL | 0.2 µg/mL | 0.02 µg/mL | ≤ 0.005 µg/mL | 0.02 µg/mL | ≤ 0.005 µg/mL | > 100 µg/mL | 0.39 µg/mL | 0.01 µg/mL | 0.2 µg/mL | 25 µg/mL | 0.1 µg/mL | 25 µg/mL | > 100 µg/mL | MIC (organism code UU): 0.78 µg/mL; MIC (organism code VV): 0.2 µg/mL; MIC (organism code WW): 4 µg/mL; MIC (organism code XX): 0.03 µg/mL; MIC (organism code YY): 0.06 µg/mL; MIC (organism code ZZ): > 128 µg/mL; MIC (organism code ZZA): 2 µg/mL
4 | CC[C@H]1OC(=O)[C@H](C)C(=O)[C@H](C)[C@@H](O[C@@H]2O[C@H](C)C[C@H](N(C)C)[C@H]2O)[C@@](C)(OCCNCCCc2ccccc2)C[C@@H](C)C(=O)[C@H](C)[C@H]2NC(=O)O[C@@]21C [Example 223, Compound of Formula (IX): L is CO, T is NH, R is —CH2CH2NHCH2CH2CH2Phenyl] | 0.2 µg/mL | 0.1 µg/mL | > 100 µg/mL | 0.2 µg/mL | 0.2 µg/mL | 0.2 µg/mL | > 100 µg/mL | 0.39 µg/mL | 0.05 µg/mL | ≤ 0.005 µg/mL | ≤ 0.005 µg/mL | ≤ 0.005 µg/mL | > 100 µg/mL | 0.1 µg/mL | 0.05 µg/mL | 0.2 µg/mL | 50 µg/mL | 0.2 µg/mL | 100 µg/mL | > 100 µg/mL | MIC (organism code UU): 3.1 µg/mL; MIC (organism code VV): 0.2 µg/mL; MIC (organism code WW): 4 µg/mL; MIC (organism code XX): 0.03 µg/mL; MIC (organism code YY): 0.03 µg/mL; MIC (organism code ZZ): > 128 µg/mL; MIC (organism code ZZA): 0.5 µg/mL
5 | CC[C@H]1OC(=O)[C@H](C)C(=O)[C@H](C)[C@@H](O[C@@H]2O[C@H](C)C[C@H](N(C)C)[C@H]2O)[C@@](C)(OCCNCCCCc2ccccc2)C[C@@H](C)C(=O)[C@H](C)[C@H]2NC(=O)O[C@@]21C [Example 224] | 0.39 µg/mL (≈ 0.504 µM) | 0.2 µg/mL (≈ 0.258 µM) | > 100 µg/mL | 0.2 µg/mL (≈ 0.258 µM) | 0.2 µg/mL (≈ 0.258 µM) | 0.2 µg/mL (≈ 0.258 µM) | > 100 µg/mL | 0.39 µg/mL (≈ 0.504 µM) | 0.01 µg/mL (≈ 0.0129 µM) | 0.01 µg/mL (≈ 0.0129 µM) | ≤ 0.005 µg/mL | 0.01 µg/mL (≈ 0.0129 µM) | > 100 µg/mL | 0.2 µg/mL (≈ 0.258 µM) | 0.02 µg/mL (≈ 0.0258 µM) | 0.2 µg/mL (≈ 0.258 µM) | 25 µg/mL (≈ 32.3 µM) | 0.2 µg/mL (≈ 0.258 µM) | 25 µg/mL (≈ 32.3 µM) | > 100 µg/mL | MIC (organism code UU): 3.1 µg/mL (≈ 4.01 µM); MIC (organism code VV): 0.1 µg/mL (≈ 0.129 µM); MIC (organism code WW): 4 µg/mL (≈ 5.17 µM); MIC (organism code XX): 0.03 µg/mL (≈ 0.0388 µM); MIC (organism code YY): 0.03 µg/mL (≈ 0.0388 µM); MIC (organism code ZZ): > 128 µg/mL; MIC (organism code ZZA): 2 µg/mL (≈ 2.58 µM)
